In brackets after ≈: the same amount, converted by molar mass.
Tests used:
P. mirabilis = experiment: Urinary bactericidal titers (UBT) and AUBTC of volunteers' urine; assay type: cell-based; conditions: P. mirabilis (16) Laboratory No. 414; urine after gemifloxacin 320 mg or ofloxacin 400 mg
S. aureus = experiment: as above; assay type: cell-based; conditions: urine after gemifloxacin 320 mg or ofloxacin 400 mg
[1] = system: enteropathogenic bacterial strains; experiment: MIC by agar dilution (NCCLS M7-A4), enteropathogenic isolates pooled; assay type: cell-based; conditions: all enteropathogenic isolates except C. jejuni
[2] = set-up: species or system healthy volunteers; conditions: human, in vivo, po
[3] = system: anaerobic cocci and Gram positive pathogens; experiment: organism not typed; assay type: cell-based; conditions: read-out: MIC90s
E. coli = experiment: Urinary bactericidal titers (UBT) and AUBTC of volunteers' urine; assay type: cell-based; conditions: for AUBTC (range): urine after gemifloxacin 320 mg or ofloxacin 400 mg; for time for which median UBTs exceed 0: reference strain E. coli ATCC 25922, 320 mg gemifloxacin / 400 mg ofloxacin
[4] = S. aureus (13) Laboratory No. 636
[5] = S. aureus (16) Laboratory No. 83
[6] = S. aureus (16) Laboratory No. 161
[7] = E. coli (16) Laboratory No. 523

Compound | AUBTC (range) (P. mirabilis) | AUBTC (range) (S. aureus; [4]) | AUBTC (range) (S. aureus; [5]) | AUBTC (range) (S. aureus; [6]) | concentration inhibiting 100% of isolates [1] | tolerability [2] | MIC [3] | AUBTC (range) (E. coli; E. coli (16) ATCC 25922) | AUBTC (range) (E. coli; [7]) | time for which median UBTs exceed 0 (E. coli)
CO/N=C1\CN(c2nc3c(cc2F)c(=O)c(C(=O)O)cn3C2CC2)CC1CN (racemic) [Gemifloxacin, (R,S)-7-(3-aminomethyl-4-methoxyiminopyrrolidin-1-yl)-1-cyclopropyl-6-fluoro-4-oxo-1,4-dihydro-1,8-naphthyridine-3-carboxylic acid] | 261 (120-510) | 108 (0-408) | 540 (246-834) | 60 (0-144) | 0.25 mg/L | well tolerated | 0.125 to 2 µg/mL (≈ 0.321 to 5.14 µM) | 546 (174-816) | 237(48-384) | 5 days
CC1COc2c(N3CCN(C)CC3)c(F)cc3c(=O)c(C(=O)O)cn1c23 (stereo not drawn) [Ofloxacin, ofloxacin] | 438 (276-654) | 105 (0-279) | 387 (162-570) | 39 (0-78) | – | well tolerated | – | 537 (258-888) | 276 (90-516) | 4 days
